Patent US20240270809A1, “ORAL GLP RECEPTOR AGONISTS” (priority 2020, published 2024)
Positions of bridges follow the written chain, without caps; N, C: chain ends. Non-standard residues stand in square brackets, D forms with d. Residues, ends and D or L forms follow the SMILES beside them. *: point of attachment. Malonyl(2,2-Me2,histaminyl) = CC(C)(C(=O)NCCc1cnc[nH]1)C(=O)*; Ala(1H-tetrazol-5-yl) = N[C@@H](Cc1nnn[nH]1)C(=O)O; αMePhe(2-F) = C[C@](N)(Cc1ccccc1F)C(=O)O; αMeL = CC(C)C[C@](C)(N)C(=O)O; Nle = CCCC[C@H](N)C(=O)O; Aib = CC(C)(N)C(=O)O; Alloc = C=CCOC(=O)*

How the values were obtained:
[1] = target: T1, human GLP2 receptor (Homo sapiens, UniProt O95838); assay: cAMP accumulation assay, functional agonism of human GLP2 receptor; type: cell-based; settings: HEK cells infected with human GLP2 receptor BacMam virus, HTRF cAMP; for Emax: HEK293, read-out: Human GLP-2R agonist cAMP Emax; for EC50: read-out: Human GLP-2R agonist cAMP pEC50 (converted)
T1 construct: expressed in transfected cells; host or cells: HEK cells, BacMam virus transduction
T1 sequence (O95838 1-553): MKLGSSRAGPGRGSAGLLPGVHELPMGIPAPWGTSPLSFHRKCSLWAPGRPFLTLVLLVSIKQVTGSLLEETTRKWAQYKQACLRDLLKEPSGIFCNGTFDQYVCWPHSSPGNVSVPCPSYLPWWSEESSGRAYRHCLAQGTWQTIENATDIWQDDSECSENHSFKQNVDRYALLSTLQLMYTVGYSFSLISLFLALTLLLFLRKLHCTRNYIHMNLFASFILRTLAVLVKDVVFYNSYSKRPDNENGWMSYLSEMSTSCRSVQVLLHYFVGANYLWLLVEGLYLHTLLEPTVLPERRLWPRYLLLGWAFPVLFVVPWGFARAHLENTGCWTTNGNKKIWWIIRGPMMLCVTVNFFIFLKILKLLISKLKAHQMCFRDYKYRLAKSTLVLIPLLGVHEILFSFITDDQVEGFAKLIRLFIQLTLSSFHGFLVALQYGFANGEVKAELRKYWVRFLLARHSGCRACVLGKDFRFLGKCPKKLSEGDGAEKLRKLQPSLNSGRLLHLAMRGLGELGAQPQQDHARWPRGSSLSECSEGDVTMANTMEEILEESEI
Summary of the method: (§1)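 Frozen HEK cells, previously BacMam-infected 24 h to express either receptor, are stimulated for 45 min at 37° C in IBMX-containing (0.5 mM) HBSS. The reaction is then terminated with HTRF reagents in lysis buffer.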

[2] = target: T2, human GLP1 receptor (Homo sapiens, UniProt P43220); assay: cAMP accumulation assay, functional agonism of human GLP1 receptor; type: cell-based; settings: HEK cells infected with human GLP1 receptor BacMam virus, HTRF cAMP; for Emax: HEK293, read-out: Human GLP-1R agonist cAMP Emax; for EC50: read-out: Human GLP-1R agonist cAMP pEC50 (converted)
T2 construct: expressed in transfected cells; host or cells: HEK cells, BacMam virus transduction
Summary of the method: as §1

T2 sequence (P43220 24-463): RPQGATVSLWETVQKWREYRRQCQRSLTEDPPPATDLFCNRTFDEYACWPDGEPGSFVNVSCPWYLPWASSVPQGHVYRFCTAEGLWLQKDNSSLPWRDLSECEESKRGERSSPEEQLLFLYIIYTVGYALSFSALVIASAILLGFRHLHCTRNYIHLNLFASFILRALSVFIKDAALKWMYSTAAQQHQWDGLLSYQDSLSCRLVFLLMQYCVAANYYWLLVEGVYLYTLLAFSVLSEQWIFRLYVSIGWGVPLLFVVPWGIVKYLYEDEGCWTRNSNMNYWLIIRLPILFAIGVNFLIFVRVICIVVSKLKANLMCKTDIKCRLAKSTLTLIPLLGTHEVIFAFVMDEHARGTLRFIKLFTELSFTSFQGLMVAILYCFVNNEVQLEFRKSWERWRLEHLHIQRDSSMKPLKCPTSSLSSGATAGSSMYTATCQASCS

Emax [1]	EC50 [1]	Emax [2]	EC50 [2]	SMILES
101%	0.0316 nM	96.7%	12.6 nM	CCCC[C@H](NC(=O)[C@H](CCC(=O)O)NC(=O)[C@H](CC(=O)O)NC(=O)[C@H](CO)NC(=O)[C@H](Cc1ccccc1)NC(=O)[C@H](CO)NC(=O)CNC(=O)[C@H](CC(=O)O)NC(=O)C(C)(C)NC(=O)[C@@H](N)Cc1c[nH]cn1)C(=O)N[C@H](Cc1ccccc1)C(=O)N[C@H](C(=O)N[C@H](C(=O)N[C@@H](CC(C)C)C(=O)N[C@@H](CC(=O)O)C(=O)N[C@@H](CC(C)C)C(=O)N[C@@H](CCCCN)C(=O)N[C@@H](C)C(=O)N[C@@H](C)C(=O)N[C@@H](CCCCN)C(=O)N[C@@H](CC(=O)O)C(=O)N[C@@H](Cc1ccccc1)C(=O)N[C@H](C(=O)N[C@@H](CC(N)=O)C(=O)N[C@@H](Cc1c[nH]c2ccccc12)C(=O)N[C@@H](CC(C)C)C(=O)N[C@H](C(=O)N[C@@H](CCC(N)=O)C(=O)N[C@H](C(=O)N[C@H]1CCCCNC(=O)CC[C@@H](C(N)=O)NC(=O)[C@H]([C@@H](C)O)NC(=O)[C@H]([C@@H](C)CC)NC1=O)[C@@H](C)O)[C@@H](C)CC)[C@@H](C)CC)[C@@H](C)CC)[C@@H](C)O [Example 101] (H-H[Aib]DGSFSDE[Nle][dF]TILDLKAAKDFINWLIQTKITE-NH2; lactam 30-33 (inferred); C-terminus assumed)
99.6%	0.316 nM	96%	0.0794 nM	CCCC[C@H](NC(=O)[C@H](CCC(=O)O)NC(=O)[C@@H]1CC(=O)NCCCC[C@H](NC(=O)[C@H](CCC(=O)O)NC(=O)C(C)(C)NC(=O)[C@@H](N)Cc2c[nH]cn2)C(=O)N[C@@H](CO)C(=O)N[C@@H](Cc2ccccc2)C(=O)N[C@@H](CO)C(=O)N1)C(=O)N[C@H](Cc1ccccc1)C(=O)N[C@H](C(=O)N[C@@](C)(CC(C)C)C(=O)N[C@@H](CC(C)C)C(=O)N[C@@H](CC(=O)O)C(=O)N[C@H]1CCC(=O)NCCCC[C@@H](C(=O)N[C@@H](CC(=O)O)C(=O)N[C@@H](Cc2ccccc2)C(=O)N[C@H](C(=O)N[C@H]2CCC(=O)NCCCC[C@@H](C(=O)N[C@H](C(=O)N[C@@H](CCCCN)C(N)=O)[C@@H](C)O)NC(=O)[C@H]([C@@H](C)CC)NC(=O)[C@H](CC(C)C)NC(=O)[C@H](Cc3c[nH]c4ccccc34)NC2=O)[C@@H](C)CC)NC(=O)[C@H](C)NC(=O)[C@H](C)NC(=O)[C@H](CCCCN)NC1=O)[C@@H](C)O [Example 28] (H-H[Aib]EKSFSDE[Nle][dF]T[αMeL]LDEKAAKDFIEWLIKTK-NH2; lactam 4-8, 16-20, 24-28 (inferred); C-terminus assumed)
102%	0.02 nM	89.1%	3.16 nM	CCCC[C@@H]1NC(=O)[C@H](CCC(=O)O)NC(=O)[C@@H](NC(=O)[C@H](CO)NC(=O)[C@H](Cc2ccccc2)NC(=O)[C@H](CO)NC(=O)CNC(=O)[C@H](Cc2nn[nH]n2)NC(=O)C(C)(C)C(=O)NCCc2c[nH]cn2)CCCCNC(=O)C[C@@H](C(=O)N[C@H](C(=O)N[C@@H](CC(C)C)C(=O)N[C@@H](CC(=O)O)C(=O)N[C@H]2CC(=O)NCCCC[C@@H](C(=O)N[C@@H](CC(=O)O)C(=O)N[C@@H](Cc3ccccc3)C(=O)N[C@H](C(=O)N[C@@H](CC(N)=O)C(=O)N[C@@H](Cc3c[nH]c4ccccc34)C(=O)N[C@@H](CC(C)C)C(=O)N[C@H](C(=O)N[C@@H](CCC(N)=O)C(=O)N[C@H](C(=O)N[C@@H](CCCCN)C(=O)N[C@H](C(=O)N[C@H](C(=O)N[C@@H](Cc3ccccc3)C(N)=O)[C@@H](C)O)[C@@H](C)CC)[C@@H](C)O)[C@@H](C)CC)[C@@H](C)CC)NC(=O)[C@H](C)NC(=O)[C@H](C)NC(=O)[C@H](CCCCN)NC2=O)[C@@H](C)CC)NC(=O)[C@@H](Cc2ccccc2)NC1=O [Example 114] ({Malonyl(2,2-Me2,histaminyl)}-[Ala(1H-tetrazol-5-yl)]GSFSKE[Nle][dF]DILDDKAAKDFINWLIQTKITF-NH2; lactam 6-10, 14-18 (inferred); C-terminus assumed)
104%	–	92.5%	–	CCCC[C@H](NC(=O)[C@H](CCC(=O)O)NC(=O)[C@@H]1CC(=O)NCCCC[C@H](NC(=O)[C@H](CC(=O)O)NC(=O)C(C)(C)NC(=O)[C@@H](N)Cc2c[nH]cn2)C(=O)N[C@@H](CO)C(=O)N[C@@H](Cc2ccccc2)C(=O)N[C@@H](CO)C(=O)N1)C(=O)N[C@H](Cc1ccccc1)C(=O)N[C@H]1CCC(=O)NCCCC[C@@H](C(=O)N[C@@H](CCCCN)C(=O)N[C@@H](C)C(=O)N[C@@H](C)C(=O)NC(C)(C)C(=O)N[C@@H](CC(=O)O)C(=O)N[C@@H](Cc2ccccc2)C(=O)N[C@H](C(=O)N[C@H]2CCC(=O)NCCCC[C@@H](C(=O)N[C@H](C(=O)N[C@@H](CCCCN)C(N)=O)[C@@H](C)O)NC(=O)[C@H]([C@@H](C)CC)NC(=O)[C@H](CC(C)C)NC(=O)[C@H](Cc3c[nH]c4ccccc34)NC2=O)[C@@H](C)CC)NC(=O)[C@H](CC(=O)O)NC(=O)[C@H](CC(C)C)NC(=O)[C@H]([C@@H](C)CC)NC1=O [Example 5] (H-H[Aib]DKSFSDE[Nle][dF]EILDKKAA[Aib]DFIEWLIKTK-NH2; lactam 4-8, 12-16, 24-28 (inferred); N-terminus and C-terminus assumed)
102%	0.0251 nM	94.3%	0.794 nM	C=CCOC(=O)NCCCC[C@@H]1NC(=O)[C@@H](NC(=O)[C@H](CC(=O)O)NC(=O)[C@H](CC(C)C)NC(=O)[C@@H](NC(=O)[C@@H]2CC(=O)NCCCC[C@H](NC(=O)[C@H](CO)NC(=O)[C@H](Cc3ccccc3)NC(=O)[C@H](CO)NC(=O)CNC(=O)[C@H](Cc3nn[nH]n3)NC(=O)C(C)(C)C(=O)NCCc3c[nH]cn3)C(=O)N[C@@H](CCC(=O)O)C(=O)N[C@@H](CCCC)C(=O)N[C@H](Cc3ccccc3)C(=O)N2)[C@@H](C)CC)CCC(=O)NCCCC[C@@H](C(=O)N[C@@H](CC(=O)O)C(=O)N[C@@H](Cc2ccccc2)C(=O)N[C@H](C(=O)N[C@@H](CC(N)=O)C(=O)N[C@@H](Cc2c[nH]c3ccccc23)C(=O)N[C@@H](CC(C)C)C(=O)N[C@H](C(=O)N[C@@H](CCC(N)=O)C(=O)N[C@H](C(=O)N[C@H]2CCC(=O)NCCCC[C@@H](C(N)=O)NC(=O)[C@H]([C@@H](C)O)NC(=O)[C@H]([C@@H](C)CC)NC2=O)[C@@H](C)O)[C@@H](C)CC)[C@@H](C)CC)NC(=O)[C@H](C)NC(=O)[C@H](C)NC1=O [Example 23] ({Malonyl(2,2-Me2,histaminyl)}-[Ala(1H-tetrazol-5-yl)]GSFSKE[Nle][dF]DILDEK(Alloc)AAKDFINWLIQTEITK-NH2; lactam 6-10, 14-18, 28-31 (inferred); C-terminus assumed)
102%	0.0316 nM	98.1%	0.0251 nM	CCCC[C@H](NC(=O)[C@H](CCC(=O)O)NC(=O)[C@@H]1CC(=O)NCCCC[C@H](NC(=O)[C@H](CC(=O)O)NC(=O)C(C)(C)C(=O)NCCc2c[nH]cn2)C(=O)N[C@@H](CO)C(=O)N[C@@](C)(Cc2ccccc2F)C(=O)N[C@@H](CO)C(=O)N1)C(=O)N[C@H](Cc1ccccc1)C(=O)N[C@H](C(=O)N[C@@](C)(CC(C)C)C(=O)N[C@@H](CC(C)C)C(=O)N[C@@H](CC(=O)O)C(=O)N[C@H]1CCC(=O)NCCCC[C@@H](C(=O)N[C@@H](CC(=O)O)C(=O)N[C@@H](Cc2ccccc2)C(=O)N[C@H](C(=O)N[C@H]2CCC(=O)NCCCC[C@@H](C(=O)N[C@H](C(=O)N[C@@H](CCCCN)C(N)=O)[C@@H](C)O)NC(=O)[C@H]([C@@H](C)CC)NC(=O)[C@H](CC(C)C)NC(=O)[C@H](Cc3c[nH]c4ccccc34)NC2=O)[C@@H](C)CC)NC(=O)[C@H](C)NC(=O)[C@H](C)NC(=O)[C@H](CCCCN)NC1=O)[C@@H](C)O [Example 33] ({Malonyl(2,2-Me2,histaminyl)}-DKS[αMePhe(2-F)]SDE[Nle][dF]T[αMeL]LDEKAAKDFIEWLIKTK-NH2; lactam 2-6, 14-18, 22-26; C-terminus assumed)
